The target of data set [1] is T1, HBX2 HIV integrase (Human immunodeficiency virus type 1 group M subtype B, UniProt P04585).
T1 construct: contains the cDNA encoding the HBX2 HIV integrase; His tag (N, cleaved yes); made in house; host or cells: Escherichia coli BL21 (DE3)
The data set is described as follows: Strand transfer assay. It is filed as biochemical. The method, then: The pET-15b-IN plasmid contains the cDNA encoding the HBX2 HIV integrase. His-tagged integrase protein was overexpressed in Escherichia coli BL21 (DE3) and purified under native conditions. Briefly, at an OD of 0.8, fusion protein expression was induced in bacterial cultures by the addition of IPTG (1 mM). Cultures were incubated for 3 h at 37° C., of ter which cells were centrifuged. The cell pellet was resuspended in ice-cold buffer A [20 mM Ths-HCl (pH 8), 1 M NaCl, 4 mM β-mercaptoethanol, and 5 mM imidazole], treated with lysozyme for 1 h on ice, and sonicated. After centrifugation (30 min at 10 000 rpm), the supernatant was filtered (0.45 μm) and incubated for at least 2 h with Ni-NTA agarose beads (Pharmacia). The beads were washed twice with 10 volumes of buffer A, 10 volumes of buffer A with 50 mM imidazole, and 10 volumes of buffer A with 100 mM imidazole. His-tagged integrase was then eluted with buffer A supplemented with 50 μM ZnSO4 and 1 M imidazole. […]
Processing, strand transfer reactions were performed using U5A-U5B-2, in buffer containing 20 mM Tris (pH 7.2), 50 mM NaCl, 10 mM DTT, 1 OmM MgCl2. […] Gels were analyzed using a STORM Molecular Dynamics phosphorimager and quantified with Image Quant™ 4.1 software.

Data set [2] relates to wild type HIV-1 virus (NL 4.3 strains). The data set is described as follows: Antiviral activity assay on Hela P4 cells (beta-galactosidase, CPRG). The note with it: Human immunodeficiency virus 1, HeLaP4; HeLa P4 cells, HIV-1 NL 4.3, 48 hours; read-out: P4 IC50. Type of data set: cell-based. The method, then:
The antiviral activity is determined by infecting HelaP4 cells with a wild type HIV-1 virus (NL 4.3 strains at 3 ng) on cells in presence or absence of drugs. A serial dilution of drugs is done to evaluate the EC50. The effective concentration is the concentration of product at which virus replication is inhibited by 50 percent. After 48 hours incubation, the quantification is done by the evaluation of β-Galactosidase produced by the infected Hela P4 cells. The viral activity is evaluated by colorimethc assay, CPRG, followed by plate reading at 570 nm with a reference of 690 nm. The CPRG test is a colorimetric assay which allows to quantity the β-galactosidase produced by HIV-1 infected indicator cells (the β-Gal gene being under the control of the HIV-1 LTR).

Data set [3] shares this test system. The data set is described as follows: Antiviral activity assay CEM cells (p24 ELISA). Type of data set: cell-based. The note with it: Human immunodeficiency virus 1, CCRF-CEM; CEM cells, HIV-1 NL 4.3, 48 hours, p24; read-out: CEM. The method, then:
The activity is determined by infecting CEM cells with a wild type HIV-1 virus (NL 4.3 strains at 3 ng) on cells in presence or absence of drugs. A serial dilution of drugs is done to evaluate the EC50. […] After 48 hours incubation, the quantification is done by the evaluation of the viral protein p24 with a commercial Elisa Kit. P24 is a protein essential to the replication virus cycle. The quantification of this enzyme is proportional to the amount of virus produced by the infected cells.
For orientation: An ELISA detects its analyte on a solid surface through an enzyme-linked reagent.

For data set [4], the target named is T1, HBX2 HIV integrase. The data set is described as follows: 3' LTR processing assay. It is filed as biochemical. The method, then: The pET-15b-IN plasmid contains the cDNA encoding the HBX2 HIV integrase. His-tagged integrase protein was overexpressed in Escherichia coli BL21 (DE3) and purified under native conditions. Briefly, at an OD of 0.8, fusion protein expression was induced in bacterial cultures by the addition of IPTG (1 mM). Cultures were incubated for 3 h at 37° C., of ter which cells were centrifuged. The cell pellet was resuspended in ice-cold buffer A [20 mM Ths-HCl (pH 8), 1 M NaCl, 4 mM β-mercaptoethanol, and 5 mM imidazole], treated with lysozyme for 1 h on ice, and sonicated. After centrifugation (30 min at 10 000 rpm), the supernatant was filtered (0.45 μm) and incubated for at least 2 h with Ni-NTA agarose beads (Pharmacia). The beads were washed twice with 10 volumes of buffer A, 10 volumes of buffer A with 50 mM imidazole, and 10 volumes of buffer A with 100 mM imidazole. His-tagged integrase was then eluted with buffer A supplemented with 50 μM ZnSO4 and 1 M imidazole. The integrase concentration was adjusted to 0.1 mg/mL in buffer A. The fusion protein was cleaved using thrombin and dialyzed overnight against 20 mM Ths-HCl (pH 8), 1 M NaCl, and 4 mM (3-mercaptoethanol. After removal of biotinylated thrombin by incubation with streptavidin-agarose magnetic beads (Novagen, Madison, Wis.), a second dialysis was performed for 2 h against 20 mM Ths-HCl (pH 8), 1 M NaCl, 4 mM mercaptoethanol, and 20% (v/v) ethylene glycol. Fractions were aliquoted and rapidly frozen at −80° C.
Oligonucleotides U5B (5′-[…]-3′), U5B-2 (5′-GTGTGGAAAATCTCTAGCA-3′), U5A (5′-[…]-3′) were purchased from Eurogentec (Liege, Belgium) and further purified on an 18% denaturing acrylamide/urea gel. For processing, strand transfer, 100 pmol of U5B, U5B-2, respectively, were radiolabeled using T4 polynucleotide kinase and 50 μCi of [γ-32P]ATP (3000 Ci/mmol). The T4 kinase was heat inactivated, and unincorporated nucleotides were removed using a Sephadex G-10 column (GE Healthcare). NaCl was added to a final concentration of 0.1 M, and complementary unlabeled strand USA was added to either U5B or U5B-2. The mixture was heated to 90° C. for 3 min, and the DNA was annealed by slow cooling.
Processing reaction was performed using U5A-U5B, in buffer containing 20 mM Tris (pH 7.2), 50 mM NaCl, 10 mM DTT, and 10 mM MgCl2. […] The reactions were stopped by phenol/chloroform extraction, and DNA products were precipitated with ethanol. The products were separated in TE containing 7 M urea and electrophoresed on an 18% denaturing acrylamide/urea gel. Gels were analyzed using a STORM Molecular Dynamics phosphorimager and quantified with Image Quant™ 4.1 software.

Data set [5] can be described thus: Stability by HPLC in PEG400 and Vitamine E-TPGS/PEG 400 mixtures. It is filed as physicochemical. The settings on record: within only 3 hrs, mixtures of excipients. The method, then: The second stability assay consists in the assessment according to standard HPLC analysis protocols over 24 hrs in PEG400 and Vitamine E-TPGS/PEG 400 mixtures, by focusing on the evolution of the concentration and peak purity of the compound. Compounds were dissolved in appropriate amounts of solvent and let under stirring protected from light for 24 hrs. Aliquots were transferred into eppendorfs and centrifuged at 10 000 g for 10 min. Supernatants were collected and appropriately diluted in DMSO/mobile phase mixtures before HPLC analysis. The Waters HPLC analysis system equipped with an ultraviolet detector and a Waters Symmetry Shield C18 column of 2.1 mm×50 mm ([…]) was used. A mobile phase of water/acetic acid 0.1% (Solvant A): Acetonitrile/acetic acid 0.1% (solvent B) mixture or a water/trifluoroacetic acid 0.1% (Solvant A): Acetonitrile/trifluoroacetic acid 0.1% (solvent B) mixture in the case of compound FZ41 was pumped according to a binary gradient described below, at a flow rate of 0.4 ml/min.

A short description of data set [6]: Chemical stability at pH between 1 and 7. Type of data set: physicochemical. The settings on record: within less than 24 hrs, pH between 1 and 7.
A short description of data set [7]: Stability in Hepes buffer 0.5 M pH 7.5 (UV spectrophotometry). The settings on record: HEPES 0.5 M pH 7.5, 37°, 50 μM (SQE94 and 79 at 25 μM). Type of data set: physicochemical. The method, then: 2.1. Hepes Buffer 0.5M, pH 7.5. 16 μl of drug at 25 mM, in 8 ml of Hepes Buffer. Different time points were done, Oh, 2 h, 4 h, 24 h, and 48 h.
Stability of the compounds was performed in HEPES Buffer 0.5 M (pH 7.5) at 37 O, at a concentration of 50 μM. Compounds SQE94 and 79 were tested at a concentration of 25 μM to avoid parasite precipitation phenomena. Typically, stock solutions of compounds in DMSO (25 mM) were diluted in HEPES Buffer. Dilutions were stored at 37° C., protected from light. Sampling was done at different time points. Samples were analyzed on an UV-spectrophotometer using a wavelength scan between 200 and 700 nm. Superposition of UV-spectra gives the qualitative aspect of the stability of the drug. Based on the Beer-Lambert law, percentage of degradation of the drug over time was calculated, when placed at the maximum absorption wavelength.

A further data set is described as follows: in vitro. It is filed as cell-based. The note with it: human. The method, then: The cytotoxicity of compounds was evaluated using un-infected and infected Hel_a-P4 cell and CEM leukemia cells. CEM cell were obtained from the American Type Tissue Collection (Rockville, Md.).
A serial dilution of drugs is done to evaluate the cytotoxicity concentration and is identified by CC50 (concentration of drug which induces 50% of cytotoxicity)
The HeLa-P4 was cultured in the presence or absence of compounds for 2 days. After this time period, cells were cultivated with MTT for 3 hours, further the medium is removed. And the lysis buffer is incubated for 1 hour, followed by plate reading at 540 nm in a microplate reader.

The values that follow come from patent publication US20110224242A1, “STYRLYQUINOLINES, THEIR PROCESS OF PREPARATION AND THEIR THERAPEUTIC USES” (BIOALLIANCE PHARMA, priority 2008, published 2011).

In the case of `COc1cc(/C=C/c2ccc3ccc(C(=O)O)c(O)c3n2)cc(O)c1O` [FZ41, reference compound], the figures for the IC50 (against HBX2 HIV integrase [1]; in data set [2]; against HBX2 HIV integrase [4]) were 1700 nM, 5 µM and 700 nM, respectively. Also, the EC50 in data set [3] is 25 µM. Further, the degradation result in data set [5] was “at least 10%”. For the same molecule, in data set [6], the degradation rate was 50-60%. The “% of degradation” value is 31.1% in data set [7] (2 hrs), 59.6% in data set [7] (4 hrs) and 64.6% in data set [7] (24 hrs). Further, the IC50 at 2 days in the data set “in vitro” is over 100 µM.

As usually defined, the IC50 is the midpoint of a concentration-inhibition curve.
